Experimental data from US8338465B2, “Cyclic carboxylic acid rhodanine derivatives for the treatment and prevention of tuberculosis” (priority 2006, dated 2012).

Molecular target: T1, dihydrolipoamide acyltransferase (DlaT) (Mycobacterium tuberculosis, UniProt P9WIS7)
T1 sequence (P9WIS7 1-553): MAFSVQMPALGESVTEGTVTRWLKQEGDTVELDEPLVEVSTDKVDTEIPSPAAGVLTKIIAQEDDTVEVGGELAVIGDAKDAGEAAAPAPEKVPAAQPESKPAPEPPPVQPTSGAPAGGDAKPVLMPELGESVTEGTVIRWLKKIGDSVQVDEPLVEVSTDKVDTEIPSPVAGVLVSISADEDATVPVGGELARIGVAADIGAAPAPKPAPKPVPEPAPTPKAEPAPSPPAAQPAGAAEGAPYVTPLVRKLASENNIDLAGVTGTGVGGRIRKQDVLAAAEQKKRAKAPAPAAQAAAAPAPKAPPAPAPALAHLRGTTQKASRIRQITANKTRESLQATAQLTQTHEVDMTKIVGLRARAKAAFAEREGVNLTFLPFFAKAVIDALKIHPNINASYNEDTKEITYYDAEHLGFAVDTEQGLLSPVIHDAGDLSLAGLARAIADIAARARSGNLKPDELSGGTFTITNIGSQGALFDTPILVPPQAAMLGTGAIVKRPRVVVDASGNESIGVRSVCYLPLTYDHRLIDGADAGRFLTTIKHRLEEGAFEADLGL
Assay: DlaT inhibition (Dlat IC50); DTNB peroxidase assay with Lpd, DlaT and AhpD
Type: biochemical
Conditions: Table 1, Compounds A1 to A294; read-out: Dlat IC50 category

Row | SMILES | IC50
1 | CC(C)(c1ccccc1)c1ccc(-c2ccc(C=C3SC(=S)N(c4cccc(C(=O)O)c4)C3=O)o2)cc1 [Compound A95] | < 10 µM
2 | CC(C)(c1ccccc1)c1ccc(-c2ccc(C=C3SC(=S)N(c4cc(C(=O)O)ccc4Cl)C3=O)o2)cc1 [Compound A96] | < 10 µM
3 | COc1ccc(C(=O)O)cc1N1C(=O)C(=Cc2ccc(-c3ccc(C(C)(C)c4ccccc4)cc3)o2)SC1=S [Compound A97] | 11 to 40 µM
4 | Cc1c(C(=O)O)cccc1N1C(=O)C(=Cc2ccc(-c3ccc(C(C)(C)c4ccccc4)cc3)o2)SC1=S [Compound A98] | < 10 µM
5 | O=C(O)c1ccc(F)c(N2C(=O)C(=Cc3ccc(-c4ccccc4Cl)o3)SC2=S)c1 [Compound A99] | < 10 µM
6 | CC(C)(C)c1ccc(-c2ccc(C=C3SC(=S)N(c4cc(C(=O)O)ccc4F)C3=O)o2)cc1 [Compound A100] | < 10 µM
7 | O=C(O)c1ccc(F)c(N2C(=O)C(=Cc3ccc(-c4ccc(C5CCCCC5)cc4)o3)SC2=S)c1 [Compound A101] | < 10 µM
8 | Cc1ccc(C(=O)O)cc1N1C(=O)C(=Cc2ccc(-c3ccc(C(C)(C)c4ccccc4)cc3)o2)SC1=S [Compound A102] | < 10 µM
9 | O=C(O)c1ccc(F)c(N2C(=O)C(=Cc3ccc(-c4cccc(C(F)(F)F)c4)o3)SC2=S)c1 [Compound A103] | < 10 µM
10 | O=C(O)c1ccc(F)c(N2C(=O)C(=Cc3ccc(-c4ccc(Cl)cc4)o3)SC2=S)c1 [Compound A104] | < 10 µM
11 | O=C(O)c1ccc(F)c(N2C(=O)C(=Cc3ccc(-c4ccc(Cl)c(Cl)c4)o3)SC2=S)c1 [Compound A105] | < 10 µM
12 | O=C(O)c1ccc(F)c(N2C(=O)C(=Cc3ccc(-c4c(Cl)cccc4Cl)o3)SC2=S)c1 [Compound A106] | < 10 µM
13 | O=C(O)c1ccc(Cl)c(N2C(=O)C(=Cc3ccc(-c4ccc(Cl)c(Cl)c4)o3)SC2=S)c1 [Compound A107] | < 10 µM
14 | O=C(O)c1cc(N2C(=O)C(=Cc3ccc(-c4ccc(Cl)c(Cl)c4)o3)SC2=S)ccc1Cl [Compound A108] | < 10 µM
15 | O=C(O)c1cc(N2C(=O)C(=Cc3ccc(-c4c(Cl)cccc4Cl)o3)SC2=S)ccc1Cl [Compound A109] | < 10 µM
16 | O=C(O)c1ccc(Cl)c(N2C(=O)C(=Cc3ccc(-c4c(Cl)cccc4Cl)o3)SC2=S)c1 [Compound A110] | < 10 µM
17 | Cc1c(C(=O)O)cccc1N1C(=O)C(=Cc2ccc(-c3ccc(Cl)c(Cl)c3)o2)SC1=S [Compound A111] | < 10 µM
18 | Cc1c(C(=O)O)cccc1N1C(=O)C(=Cc2ccc(-c3c(Cl)cccc3Cl)o2)SC1=S [Compound A112] | < 10 µM
19 | Cc1ccc(C(=O)O)cc1N1C(=O)C(=Cc2ccc(-c3ccc(Cl)c(Cl)c3)o2)SC1=S [Compound A113] | < 10 µM
20 | Cc1ccc(C(=O)O)cc1N1C(=O)C(=Cc2ccc(-c3c(Cl)cccc3Cl)o2)SC1=S [Compound A114] | < 10 µM
21 | O=C(O)c1cccc(N2C(=O)C(=Cc3ccc(-c4ccc(C(=O)O)c(O)c4)o3)SC2=S)c1 [Compound A115] | 11 to 40 µM
22 | CN(C)c1ccc(-c2ccc(C=C3SC(=S)N(c4cccc(C(=O)O)c4)C3=O)o2)cc1 [Compound A116] | 11 to 40 µM
23 | O=C(O)c1cccc(N2C(=O)C(=Cc3ccc(-c4cccc(Cl)c4Cl)o3)SC2=S)c1 [Compound A117] | < 10 µM

Row | SMILES | IC50
24 | O=C(O)CCc1cccc(N2C(=O)C(=Cc3ccc(-c4ccccc4Cl)o3)SC2=S)c1 [Compound A118] | < 10 µM
25 | O=C(O)CCc1cccc(N2C(=O)C(=Cc3ccc(-c4cccc(Cl)c4)o3)SC2=S)c1 [Compound A119] | < 10 µM
26 | O=C(O)CCc1cccc(N2C(=O)C(=Cc3ccc(-c4ccc(Cl)cc4)o3)SC2=S)c1 [Compound A120] | < 10 µM
27 | O=C(O)c1cccc(N2C(=O)C(=Cc3ccc(-c4cc(Cl)cc(Cl)c4)o3)SC2=S)c1 [Compound A121] | 11 to 40 µM
28 | CN(C)Cc1ccc(-c2ccc(C=C3SC(=S)N(c4cccc(C(=O)O)c4)C3=O)o2)cc1 [Compound A122] | 11 to 40 µM
29 | O=C(O)c1cccc(N2C(=O)C(=Cc3ccc(-c4ccc(Br)cc4)o3)SC2=S)c1 [Compound A123] | 11 to 40 µM
30 | O=C(O)c1cccc(N2C(=O)C(=Cc3ccc(-c4ccc(O)cc4Cl)o3)SC2=S)c1 [Compound A124] | < 10 µM
31 | CN(C)c1cccc(-c2ccc(C=C3SC(=S)N(c4cccc(C(=O)O)c4)C3=O)o2)c1 [Compound A125] | < 10 µM
32 | C#Cc1ccc(-c2ccc(C=C3SC(=S)N(c4cccc(C(=O)O)c4)C3=O)o2)cc1 [Compound A126] | 11 to 40 µM
33 | O=C(O)c1cccc(N2C(=O)C(=Cc3ccc(-c4cccc([N+](=O)[O-])c4)o3)SC2=S)c1 [Compound A127] | < 10 µM
34 | O=C(O)c1ccc(Cl)c(N2C(=O)C(=Cc3ccc(-c4cccc([N+](=O)[O-])c4)o3)SC2=S)c1 [Compound A128] | < 10 µM
35 | O=C(O)c1cccc(N2C(=O)C(=Cc3ccc(-c4ccccc4[N+](=O)[O-])o3)SC2=S)c1 [Compound A129] | > 41 µM
36 | O=C(O)c1cccc(N2C(=O)C(=Cc3ccc(-c4ccc([N+](=O)[O-])cc4)o3)SC2=S)c1 [Compound A130] | 11 to 40 µM
37 | O=C(O)c1cccc(N2C(=O)C(=Cc3ccc(-c4ccc(Cl)cc4[N+](=O)[O-])o3)SC2=S)c1 [Compound A131] | 11 to 40 µM
38 | O=C(O)c1cccc(N2C(=O)C(=Cc3ccc(-c4ccccc4Br)o3)SC2=S)c1 [Compound A132] | 11 to 40 µM
39 | CC(C)(C)c1ccc(-c2ccc(C=C3SC(=S)N(c4cccc(C(=O)O)c4)C3=O)o2)c(O)c1 [Compound A133] | < 10 µM
40 | Cc1ccccc1-c1ccc(C=C2SC(=S)N(c3cccc(C(=O)O)c3)C2=O)o1 [Compound A134] | 11 to 40 µM
41 | COc1ccccc1-c1ccc(C=C2SC(=S)N(c3cccc(C(=O)O)c3)C2=O)o1 [Compound A135] | < 10 µM
42 | O=C(O)c1ccc(Cl)c(N2C(=O)C(=Cc3ccc(-c4ccc(N5CCOCC5)cc4)o3)SC2=S)c1 [Compound A137] | < 10 µM
43 | O=C(O)c1cccc(N2C(=O)C(=Cc3ccc(-c4ccccc4F)o3)SC2=S)c1 [Compound A138] | 11 to 40 µM
44 | COc1ccccc1-c1ccc(C=C2SC(=S)N(c3cc(C(=O)O)ccc3F)C2=O)o1 [Compound A139] | < 10 µM
45 | COc1ccccc1-c1ccc(C=C2SC(=S)N(c3cc(C(=O)O)ccc3Cl)C2=O)o1 [Compound A140] | < 10 µM
46 | COc1ccccc1-c1ccc(C=C2SC(=S)N(c3cc(C(=O)O)ccc3C)C2=O)o1 [Compound A141] | < 10 µM

Row | SMILES | IC50
47 | COc1ccccc1-c1ccc(C=C2SC(=S)N(c3cccc(C(=O)O)c3C)C2=O)o1 [Compound A142] | < 10 µM
48 | N#Cc1c(F)cccc1-c1ccc(C=C2SC(=S)N(c3cccc(C(=O)O)c3)C2=O)o1 [Compound A143] | 11 to 40 µM
49 | Cc1ccccc1-c1ccc(C=C2SC(=S)N(c3cc(C(=O)O)ccc3F)C2=O)o1 [Compound A144] | < 10 µM
50 | Cc1ccccc1-c1ccc(C=C2SC(=S)N(c3cc(C(=O)O)ccc3C)C2=O)o1 [Compound A145] | < 10 µM
51 | COc1ccc(-c2ccc(C=C3SC(=S)N(c4cccc(C(=O)O)c4)C3=O)o2)cc1Cl [Compound A146] | < 10 µM
52 | Cc1ccc(-c2ccc(C=C3SC(=S)N(c4cccc(C(=O)O)c4)C3=O)o2)cc1 [Compound A147] | 11 to 40 µM
53 | Cc1cc(F)ccc1-c1ccc(C=C2SC(=S)N(c3cccc(C(=O)O)c3)C2=O)o1 [Compound A148] | < 10 µM
54 | Cc1cc(F)ccc1-c1ccc(C=C2SC(=S)N(c3cc(C(=O)O)ccc3F)C2=O)o1 [Compound A149] | < 10 µM
55 | Cc1ccc(-c2ccc(C=C3SC(=S)N(c4cccc(C(=O)O)c4)C3=O)o2)c(F)c1 [Compound A150] | 11 to 40 µM
56 | Cc1ccc(-c2ccc(C=C3SC(=S)N(c4cc(C(=O)O)ccc4F)C3=O)o2)c(F)c1 [Compound A151] | < 10 µM
57 | COc1ccc(-c2ccc(C=C3SC(=S)N(c4cccc(C(=O)O)c4)C3=O)o2)cc1 [Compound A152] | 11 to 40 µM
58 | O=C(O)c1cccc(N2C(=O)C(=Cc3ccc(-c4ccc(F)cc4F)o3)SC2=S)c1 [Compound A153] | < 10 µM
59 | O=C(O)c1ccc(F)c(N2C(=O)C(=Cc3ccc(-c4ccc(F)cc4F)o3)SC2=S)c1 [Compound A154] | < 10 µM
60 | Cc1ccc(-c2ccc(C=C3SC(=S)N(c4cccc(C(=O)O)c4)C3=O)o2)c(C)c1 [Compound A155] | 11 to 40 µM
61 | Cc1ccc(-c2ccc(C=C3SC(=S)N(c4cc(C(=O)O)ccc4F)C3=O)o2)c(C)c1 [Compound A156] | < 10 µM
62 | CC(C)(C)OC(=O)Nc1ccccc1-c1ccc(C=C2SC(=S)N(c3cccc(C(=O)O)c3)C2=O)o1 [Compound A157] | > 41 µM
63 | Nc1ccccc1-c1ccc(C=C2SC(=S)N(c3cccc(C(=O)O)c3)C2=O)o1 [Compound A158] | > 41 µM
64 | COc1ccc(-c2ccc(C=C3SC(=S)N(c4cccc(C(=O)O)c4)C3=O)o2)c(C)c1 [Compound A159] | 11 to 40 µM
65 | COc1ccc(-c2ccc(C=C3SC(=S)N(c4cc(C(=O)O)ccc4F)C3=O)o2)c(C)c1 [Compound A160] | < 10 µM
66 | Cc1ccccc1-c1cccc(C=C2SC(=S)N(c3cc(C(=O)O)ccc3F)C2=O)n1 [Compound A161] | < 10 µM
67 | O=C(O)c1cccc(N2C(=O)C(=Cc3ccc(-c4ccccc4O)o3)SC2=S)c1 [Compound A162] | < 10 µM
68 | O=C(O)c1ccc(F)c(N2C(=O)C(=Cc3ccc(-c4ccccc4O)o3)SC2=S)c1 [Compound A163] | < 10 µM
